# Assays:
# [1] = tested on: yellow nutsedge; test: Test G preemergence test; format: in vivo, Cyperus esculentus; conditions: scale 0 to 100
# [2] = tested on: winter barley; test: Test D preemergence test; format: in vivo, Hordeum vulgare
# From the text: (§1) Seeds of plant species selected from annual bluegrass (Poa annua), blackgrass (Alopecurus myosuroides), downy bromegrass (Bromus tectorum), field violet (Viola arvensis), green foxtail (Setaria viridis), Italian ryegrass (Lolium multiflorum), littleseed canarygrass (Phalaris minor), spring wheat (Triticum aestivum), wild oat (Avena fatua), […]), winter barley (Hordeum vulgare), and winter wheat (Triticum aestivum) were planted and treated preemergence with test chemicals formulated in a non-phytotoxic solvent mixture which included a surfactant. […] A dash (-) response means no test result.
# [3] = tested on: downy bromegrass; test: Test D preemergence test; format: in vivo, Bromus tectorum; conditions: scale 0 to 100
# From the text: as §1
# [4] = tested on: windgrass; test: Test D preemergence test; format: in vivo, Apera spica-venti; conditions: scale 0 to 100
# From the text: as §1
# [5] = tested on: itchgrass; test: Test G preemergence test; format: in vivo, Rottboellia cochinchinensis; conditions: scale 0 to 100
# [6] = tested on: large crabgrass; test: Test G preemergence test; format: in vivo, Digitaria sanguinalis; conditions: scale 0 to 100
# [7] = tested on: tall waterhemp; test: Test G preemergence test; format: in vivo, Amaranthus tuberculatos; conditions: scale 0 to 100
# [8] = tested on: winter wheat; test: Test D preemergence test; format: in vivo, Triticum aestivum; conditions: scale 0 to 100
# From the text: as §1
# [9] = tested on: spring wheat; test: Test D preemergence test; format: in vivo, Triticum aestivum; conditions: scale 0 to 100
# From the text: as §1
# [10] = tested on: blackgrass; test: Test D preemergence test; format: in vivo, Alopecurus myosuroides; conditions: scale 0 to 100
# From the text: as §1
# [11] = tested on: littleseed canarygrass; test: Test D preemergence test; format: in vivo, Phalaris minor; conditions: scale 0 to 100
# From the text: as §1
# [12] = tested on: lambsquarters; test: Test G preemergence test; format: in vivo, Chenopodium album; conditions: scale 0 to 100
# [13] = tested on: woolly cupgrass; test: Test G preemergence test; format: in vivo, Eriochloa villosa; conditions: scale 0 to 100
# [14] = tested on: field violet; test: Test D preemergence test; format: in vivo, Viola arvensis; conditions: scale 0 to 100
# From the text: as §1
# [15] = tested on: sorghum; test: Test G preemergence test; format: in vivo, Sorghum vulgare; conditions: scale 0 to 100
# [16] = tested on: fall panicum; test: Test G preemergence test; format: in vivo, Panicum dichotomiflorum; conditions: scale 0 to 100
# [17] = tested on: goosegrass; test: Test G preemergence test; format: in vivo, Eleusine indica; conditions: scale 0 to 100
# [18] = tested on: broadleaf signalgrass; test: Test G preemergence test; format: in vivo, Brachiaria platyphylla; conditions: scale 0 to 100
# [19] = tested on: green foxtail; test: Test D preemergence test; format: in vivo, Setaria viridis; conditions: scale 0 to 100
# From the text: as §1
# [20] = tested on: eastern black nightshade; test: Test G preemergence test; format: in vivo, Solanum ptycanthum; conditions: scale 0 to 100
# [21] = tested on: yellow foxtail; test: Test G preemergence test; format: in vivo, Pennisetum glaucum; conditions: scale 0 to 100
# [22] = tested on: millet foxtail; test: Test G preemergence test; format: in vivo, Setaria italica; conditions: scale 0 to 100
smiles,measurement,setting,value
Cc1cc[n+]([O-])c(S(=O)(=O)C(Cl)c2c(C(F)(F)F)nn(C)c2Cl)c1 (racemic) [Compound 22],"Plant response rating, Nutsedge, Yellow",[1]; 31 g ai/ha,0
same,"Plant response rating, Nutsedge, Yellow",[1]; 62 g ai/ha,0
same,"Plant response rating, Nutsedge, Yellow",[1]; 125 g ai/ha,0
same,"Plant response rating, Nutsedge, Yellow",[1]; 250 g ai/ha,45
same,"Plant response rating, Barley","[2]; Preemergence, 62 g ai/ha, scale 0 to 100",0
same,"Plant response rating, Barley","[2]; Preemergence, 125 g ai/ha, scale 0 to 100",0
same,"Plant response rating, Barley","[2]; Preemergence, 31 g ai/ha, scale 0 to 100",0
same,"Plant response rating, Barley","[2]; preemergence, 250 g ai/ha, scale 0 (no effect) to 100 (complete control)",0
same,"Plant response rating, Bromegrass, Downy",[3]; 31 g ai/ha,0
same,"Plant response rating, Bromegrass, Downy",[3]; 62 g ai/ha,20
same,"Plant response rating, Bromegrass, Downy",[3]; 125 g ai/ha,20
same,"Plant response rating, Bromegrass, Downy",[3]; 250 g ai/ha,35
same,"Plant response rating, Windgrass",[4]; 31 g ai/ha,100
same,"Plant response rating, Windgrass",[4]; 62 g ai/ha,100
same,"Plant response rating, Windgrass",[4]; 125 g ai/ha,100
same,"Plant response rating, Windgrass",[4]; 250 g ai/ha,100
same,"Plant response rating, Itchgrass",[5]; 31 g ai/ha,0
same,"Plant response rating, Itchgrass",[5]; 62 g ai/ha,15
same,"Plant response rating, Itchgrass",[5]; 125 g ai/ha,20
same,"Plant response rating, Itchgrass",[5]; 250 g ai/ha,40
same,"Plant response rating, Crabgrass, Large",[6]; 31 g ai/ha,60
same,"Plant response rating, Crabgrass, Large",[6]; 62 g ai/ha,60
same,"Plant response rating, Crabgrass, Large",[6]; 125 g ai/ha,95
same,"Plant response rating, Crabgrass, Large",[6]; 250 g ai/ha,100
same,"Plant response rating, Waterhemp",[7]; 31 g ai/ha,0
same,"Plant response rating, Waterhemp",[7]; 62 g ai/ha,20
same,"Plant response rating, Waterhemp",[7]; 125 g ai/ha,30
same,"Plant response rating, Waterhemp",[7]; 250 g ai/ha,100
same,"Plant response rating, Wheat, Winter",[8]; 31 g ai/ha,0
same,"Plant response rating, Wheat, Winter",[8]; 62 g ai/ha,0
same,"Plant response rating, Wheat, Winter",[8]; 125 g ai/ha,0
same,"Plant response rating, Wheat, Winter",[8]; 250 g ai/ha,10
same,"Plant response rating, Wheat, Spring",[9]; 31 g ai/ha,0
same,"Plant response rating, Wheat, Spring",[9]; 62 g ai/ha,0
same,"Plant response rating, Wheat, Spring",[9]; 125 g ai/ha,0
same,"Plant response rating, Wheat, Spring",[9]; 250 g ai/ha,15
same,"Plant response rating, Blackgrass",[10]; 31 g ai/ha,40
same,"Plant response rating, Blackgrass",[10]; 62 g ai/ha,40
same,"Plant response rating, Blackgrass",[10]; 250 g ai/ha,95
same,"Plant response rating, Canarygrass",[11]; 31 g ai/ha,0
same,"Plant response rating, Canarygrass",[11]; 62 g ai/ha,15
same,"Plant response rating, Canarygrass",[11]; 125 g ai/ha,75
same,"Plant response rating, Canarygrass",[11]; 250 g ai/ha,100
same,"Plant response rating, Lambsquarters",[12]; 31 g ai/ha,0
same,"Plant response rating, Lambsquarters",[12]; 62 g ai/ha,0
same,"Plant response rating, Lambsquarters",[12]; 125 g ai/ha,0
same,"Plant response rating, Lambsquarters",[12]; 250 g ai/ha,80
same,"Plant response rating, Cupgrass, Woolly",[13]; 31 g ai/ha,0
same,"Plant response rating, Cupgrass, Woolly",[13]; 62 g ai/ha,60
same,"Plant response rating, Cupgrass, Woolly",[13]; 125 g ai/ha,70
same,"Plant response rating, Cupgrass, Woolly",[13]; 250 g ai/ha,80
same,"Plant response rating, Field Violet",[14]; 31 g ai/ha,0
same,"Plant response rating, Field Violet",[14]; 62 g ai/ha,30
same,"Plant response rating, Field Violet",[14]; 125 g ai/ha,30
same,"Plant response rating, Field Violet",[14]; 250 g ai/ha,45
same,"Plant response rating, Sorghum",[15]; 31 g ai/ha,0
same,"Plant response rating, Sorghum",[15]; 62 g ai/ha,0
same,"Plant response rating, Sorghum",[15]; 125 g ai/ha,0
same,"Plant response rating, Sorghum",[15]; 250 g ai/ha,95
same,"Plant response rating, Fall Panicum",[16]; 31 g ai/ha,85
same,"Plant response rating, Fall Panicum",[16]; 62 g ai/ha,85
same,"Plant response rating, Fall Panicum",[16]; 125 g ai/ha,90
same,"Plant response rating, Fall Panicum",[16]; 250 g ai/ha,100
same,"Plant response rating, Goosegrass",[17]; 31 g ai/ha,100
same,"Plant response rating, Goosegrass",[17]; 62 g ai/ha,100
same,"Plant response rating, Goosegrass",[17]; 125 g ai/ha,100
same,"Plant response rating, Goosegrass",[17]; 250 g ai/ha,100
same,"Plant response rating, Signalgrass",[18]; 31 g ai/ha,0
same,"Plant response rating, Signalgrass",[18]; 62 g ai/ha,40
same,"Plant response rating, Signalgrass",[18]; 125 g ai/ha,65
same,"Plant response rating, Signalgrass",[18]; 250 g ai/ha,75
same,"Plant response rating, Foxtail, Green",[19]; 31 g ai/ha,15
same,"Plant response rating, Foxtail, Green",[19]; 62 g ai/ha,40
same,"Plant response rating, Foxtail, Green",[19]; 125 g ai/ha,95
same,"Plant response rating, Foxtail, Green",[19]; 250 g ai/ha,100
same,"Plant response rating, Nightshade",[20]; 31 g ai/ha,0
same,"Plant response rating, Nightshade",[20]; 62 g ai/ha,0
same,"Plant response rating, Nightshade",[20]; 125 g ai/ha,0
same,"Plant response rating, Nightshade",[20]; 250 g ai/ha,45
same,"Plant response rating, Foxtail, Yellow",[21]; 31 g ai/ha,0
same,"Plant response rating, Foxtail, Yellow",[21]; 62 g ai/ha,35
same,"Plant response rating, Foxtail, Yellow",[21]; 125 g ai/ha,100
same,"Plant response rating, Foxtail, Yellow",[21]; 250 g ai/ha,100
same,"Plant response rating, Foxtail, Millet",[22]; 31 g ai/ha,95
same,"Plant response rating, Foxtail, Millet",[22]; 62 g ai/ha,95
same,"Plant response rating, Foxtail, Millet",[22]; 125 g ai/ha,95
same,"Plant response rating, Foxtail, Millet",[22]; 250 g ai/ha,95
